What was measured:
Assay type in all cases: cell-based
Salmonella choleraesuis [1] = experiment: MBEC device biofilm photodynamic killing (Example 1); parameters: key to Killing of Salmonella cholerasuis biofilm (eradication or growth): “−” = biofilm eradication at the mentioned conditions (concentration, exposure time and Light source); “+” = biofilm growth; conditions: for Killing of Salmonella cholerasuis biofilm (eradication or growth): 16 Hours exposure
Description: (§1) Test microorganisms included Salmonella choleraesuis, Staphylococcus aureus, foodborne pathogens of humans. Test Compounds included Methylene blue, Hemoglobin (blood product), Hemin (blood product), Protoporphyrin (blood product), Annatto Extract (15% Norbixin), beet juice, Canthaxanthin (10%), Beta-carotene (1%), Purple carmine 50%, Carmine lake 60%, Black Carrot extract, Tomato lycopene (5%), sodium copper chlorophyllin, grape skin extract, paprika oleoresin, riboflavin, saffron, titanium dioxide, FD&C blue No1., turmeric oleoresin, FD&C blue No. 2, FD&C Green No. 3, FD&C Red No. 2 (Amaranth), FD&C Red No. 40, FD&C Yellow No. 5, and FD&C Yellow No. 6. Compounds were prepared as 1%, 0.1%, 0.01%, by weight, dissolved in water.
(§2) The light source was a full spectrum fluorescent light or LED light and the contact time was 1 and 16 hours. The study temperature was 37° C.
(§3) Approximately 10^6 organisms in 150 uL Cation Adjusted Mueller Hinton Broth (CAMHB) were placed in each of the wells of a 96 peg MBEC device. The lid of the 96 peg MBEC device was placed on the bottom plate containing organism. The device was placed on a shaker, set to 110 rpm, and incubated at 37° C. for 24 hours to produce biofilms.
(§4) The challenge plates were set up using a sterile 96-well microtitre plate using aseptic techniques in the following manner (one organism per plate, per light exposure time, per light source). Test solutions (200 uL) were placed into each well. The lid was transferred to the challenge plate and exposed to the various light sources for the prescribed exposure times (16 hours). Following the treatment, the pegs were transferred to the recovery media (“recovery plate”) then wrapped in tin foil and incubated at 37° C. for 18 to 24 hours. The recovery plate(s) was wrapped in tin foil, incubated at 37° C. for 24 hours and read visually and by a plate reader, set to an optical density measurement of 630 nm, to determine Minimum Biofilm Eradication Concentration (MBEC) by looking at growth or no growth.

Staphylococcus aureus [2] = experiment: as above; parameters: key to Killing of Staph aureus biofilm (eradication or growth): “−” = biofilm eradication at the mentioned conditions (concentration, exposure time and Light source); “+” = biofilm growth; conditions: 16 Hours exposure
Description: as §1, §2, §3, §4

E. coli 0157H7 = experiment: Photocatalytic food dyes Log10 counts (Example 2)
Description: as §1, §2, §3, §4
(§5) The test was conducted as shown in Example 1, but using Hemin (blood product), Protoporphyrin (blood product), Annatto Extract, and Turmeric. The group of tests organism also included E. Coli 0157H7.

Salmonella choleraesuis [3] = experiment: Photocatalytic food dyes Log10 counts (Example 2); conditions: S. choleraesuis, Control 7.28
Description: as §1, §2, §3, §4, §5

Staphylococcus aureus [4] = experiment: Photocatalytic food dyes Log10 counts (Example 2); conditions: Staph. aureus
Description: as §1, §2, §3, §4, §5

Compound	Killing of Salmonella cholerasuis biofilm (eradication or growth) (Salmonella choleraesuis [1]; Fluorescent Light, 0.01%)	Killing of Salmonella cholerasuis biofilm (eradication or growth) (Salmonella choleraesuis [1]; Fluorescent Light, 0.1%)	Killing of Salmonella cholerasuis biofilm (eradication or growth) (Salmonella choleraesuis [1]; Fluorescent Light, 1%)	Killing of Salmonella cholerasuis biofilm (eradication or growth) (Salmonella choleraesuis [1]; LED Light, 0.01%)	Killing of Salmonella cholerasuis biofilm (eradication or growth) (Salmonella choleraesuis [1]; LED Light, 0.1%)	Killing of Salmonella cholerasuis biofilm (eradication or growth) (Salmonella choleraesuis [1]; LED Light, 1%)	Killing of Staph aureus biofilm (eradication or growth) (Staphylococcus aureus [2]; Fluorescent Light, 0.01%)	Killing of Staph aureus biofilm (eradication or growth) (Staphylococcus aureus [2]; Fluorescent Light, 0.1%)	Killing of Staph aureus biofilm (eradication or growth) (Staphylococcus aureus [2]; Fluorescent Light, 1%)	Killing of Staph aureus biofilm (eradication or growth) (Staphylococcus aureus [2]; LED Light, 0.01%)	Killing of Staph aureus biofilm (eradication or growth) (Staphylococcus aureus [2]; LED Light, 0.1%)	Killing of Staph aureus biofilm (eradication or growth) (Staphylococcus aureus [2]; LED Light, 1%)	further results
CN(C)c1ccc2nc3ccc(=[N+](C)C)cc-3sc2c1 [Methylene blue, reference compound]	−	−	−	−	−	−	−	−	−	−	−	−	Average Log10 counts (E. coli 0157H7; Fluorescent Light 16 hours, 0.01%, Control 6.51): 3.41 Log10; Average Log10 counts (E. coli 0157H7; Fluorescent Light 16 hours, 0.1%, Control 6.51): 0.79 Log10; Average Log10 counts (E. coli 0157H7; Fluorescent Light 16 hours, 1%, Control 6.51): 0.35 Log10; Average Log10 counts (E. coli 0157H7; LED Light 16 hours, 0.01%, Control 6.36): 1.77 Log10; Average Log10 counts (E. coli 0157H7; LED Light 16 hours, 0.1%, Control 6.36): 0.00 Log10; Average Log10 counts (E. coli 0157H7; LED Light 16 hours, 1%, Control 6.36): 0.00 Log10; Average Log10 counts (Salmonella choleraesuis [3]; Fluorescent Light 16 hours, 0.01%): 0.00 Log10; Average Log10 counts (Salmonella choleraesuis [3]; Fluorescent Light 16 hours, 0.1%): 0.00 Log10; Average Log10 counts (Salmonella choleraesuis [3]; Fluorescent Light 16 hours, 1%): 0.00 Log10; Average Log10 counts (Salmonella choleraesuis [3]; LED Light 16 hours, 0.01%): 2.27 Log10; Average Log10 counts (Salmonella choleraesuis [3]; LED Light 16 hours, 0.1%): 0.00 Log10; Average Log10 counts (Salmonella choleraesuis [3]; LED Light 16 hours, 1%): 3.20 Log10; Average Log10 counts (Staphylococcus aureus [4]; Fluorescent Light 16 hours, 0.01%, Control 6.48): 3.20 Log10; Average Log10 counts (Staphylococcus aureus [4]; Fluorescent Light 16 hours, 0.1%, Control 6.48): 0.00 Log10; Average Log10 counts (Staphylococcus aureus [4]; Fluorescent Light 16 hours, 1%, Control 6.48): 0.00 Log10; Average Log10 counts (Staphylococcus aureus [4]; LED Light 16 hours, 0.01%, Control 6.95): 5.71 Log10; Average Log10 counts (Staphylococcus aureus [4]; LED Light 16 hours, 0.1%, Control 6.95): 5.40 Log10; Average Log10 counts (Staphylococcus aureus [4]; LED Light 16 hours, 1%, Control 6.95): 4.84 Log10
O=C([O-])C1=NN(c2ccc(S(=O)(=O)[O-])cc2)C(=O)C1N=Nc1ccc(S(=O)(=O)[O-])cc1.[Na+].[Na+].[Na+] (stereo not shown) [Yellow No. 5, FD&C Yellow No. 5]	+	+	+	+	+	+	+	+	+	+	+	+	
O=S(=O)([O-])c1ccc(N=Nc2c(O)ccc3cc(S(=O)(=O)[O-])ccc23)cc1.[Na+].[Na+] [Yellow No. 6, FD&C Yellow No. 6]	+	+	+	+	+	+	+	+	+	+	+	+	
CC1=C(/C=C/C(C)=C/C=C/C(C)=C/C=C/C=C(C)/C=C/C=C(C)/C=C/C2=C(C)CCCC2(C)C)C(C)(C)CCC1 [β-Carotene, Beta-carotene]	+	+	+	+	+	+	+	+	+	+	+	+	
Hemoglobin: Hemoglobin (blood product)	−	−	−	+	+	+	+	+	+	+	+	+	effective as photodynamic agent in killing biofilm organisms (Salmonella choleraesuis [1]; Salmonella choleraesuis and Staphylococcus aureus biofilm, summary of Table 1): Effective
sodium copper chlorophyllin	+	+	+	+	+	+	+	+	+	+	+	+	
